Results from US4018801A, “Substituted oxirane compounds” (The Dow Chemical Company, priority 1975, dated 1977).

Assays:
Assay type in all cases: in vivo
Cultured Rice = assay: Pre-emergent control of seed germination, soil drench; conditions: about 2 weeks
Description: (§1) Four parts by weight of the compound, 0.08 part of sorbitan trioleate (Span 85), and 0.02 part of a sorbitan monooleate polyoxyethylene derivative (Tween 80) are dipersed in 40 milliliters of acetone to produce a concentrate composition in the form of a water-dispersible liquid containing the predetermined oxirane compound as the sole active agent.
(§2) A portion of each of these concentrate compositions were separately dispersed in portions of water to provide aqueous compositions, containing 0.44 pound of the oxirane compound per 100 gallons of ultimate aqueous mixture.
(§3) The aqueous compositions were then employed for the treatment of seed beds of good agricultural soil which had been prepared and seeded with the seeds of various grass species and broadleaf plants. The grass species included white winter wheat, cultured rice, pigweeds, crabgrass, cheat grass, wild oats, Johnson grass, barnyard grass and yellow foxtail; and the broadleaf plants included corn. In the treating operations, a predetermined quantity of each of the compositions was applied to separate seedbeds as a soil drench at a rate of about 0.43 acre inch of aqueous composition per acre. The quantities were controlled to supply a substantial uniform dosage in a seedbed equivalent to 1.0, 2.0 and 5.0 pounds of the oxirane compound per acre. These dosages correspond, respectively, to a concentration, within the soil depth penetrated of about 1.6, 3.2 and 8.0 parts by weight of the oxirane compound per million parts by weight of soil. Other seedbeds were similarly seeded with the named plant species but were left untreated to serve as checks.
(§4) After about 2 weeks the seedbeds were examined to ascertain what control of the growth of seeds had been obtained.
(§5) An aqueous composition containing 2-(α,α,α -trifluoro-m-tolyl)-2-(2,2,2-trichloroethyl)oxirane was prepared as described in Example 32. The composition was then employed according to the procedures of Example 32 except that lower concentrations of the oxirane compound were employed in the composition.
(§6) The percent control of the various plant species at the employed dosage rate of the 2-(α,α,α-trifluoro-m-tolyl)- 2-(2,2,2-trichloroethyl) supplied by the composition is set forth in the following Table IV.

White Winter Wheat = assay: as above; conditions: about 2 weeks
Description: as §1, §2, §3, §4, §5, §6

Corn = assay: as above; conditions: about 2 weeks
Description: as §1, §2, §3
After about 2 weeks the seedbeds were examined to ascertain what control of the growth of seeds had been obtained. […]
as §5, §6

Water-Grass = assay: Comparative pre-emergence herbicide test
Description: as §1, §2, §3, §4
Separate aqueous compositions containing the 2-(m-chlorophenyl)-2-(2,2,2-trichloroethyl)oxirane (Cmpd. A) and 2-(m-bromophenyl)-2-(2,2,2-trichloroethyl)oxirane (Cmpd. C) compounds of the present invention were prepared as in Example 32 for comparative per-emergence herbicide tests against noxious grass species with the known 2 -(p-chlorophenyl)-2-(2,2,2-trichloroethyl)oxirane (Cmpd. B) compound and 2-(p-bromophenyl)-2-(2,2,2-trichloroethyl)oxirane (Cmpd. D). The pre-emergence tests were conducted in Example 32 and the results of such tests are set forth below in Table III.

Barnyard Grass = assay: Post-emergent control, foliage spray; conditions: about two weeks
Description: (§7) An aqueous composition containing 2-(m-bromophenyl)- 2-(2,2,2-trichloroethyl)oxirane was prepared as described in Example 32. Separate portions of this composition were thereafter dispersed in a further quantity of water to prepare aqueous spray compositions containing 250, 500, 1000, 2000 and 4000 parts, respectively of the compound per million parts by weight of ultimate treating composition. These compositions were applied as foliage sprays to various grass and broadleaf plant species, the plants being of two to four inches in height and growing in seed beds. The treatments were carried out with conventional spray equipment, the plants being sprayed to the point of run-off. Similar beds of the plant species were left untreated to serve as checks. After about two weeks, the beds were examined to ascertain what control of the growth of plants had been obtained. The plant species employed, together with the percent control obtained at the employed dosage rate of the composition is set forth in the following Table V.

Cotton = assay: Post-emergent control, foliage spray; conditions: about two weeks
Description: as §7

SMILES: ClC(Cl)(Cl)CC1(c2cccc(Br)c2)CO1 (centres unmarked) [Example 3, 2-(m-bromophenyl)-2-(2,2,2-trichloroethyl)oxirane]
- Percent Pre-Emergent Control of Seed Germination (Cultured Rice; 2.0 pounds per surface acre): 100%
- Percent Pre-Emergent Control of Seed Germination (Cultured Rice; 5.0 pounds per surface acre): 100%
- Percent Pre-Emergent Control of Seed Germination (White Winter Wheat; 1.0 pounds per surface acre): 100%
- Percent Pre-Emergent Control of Seed Germination (White Winter Wheat; 2.0 pounds per surface acre): 100%
- Percent Pre-Emergent Control of Seed Germination (White Winter Wheat; 5.0 pounds per surface acre): 100%
- Percent Pre-Emergent Control of Seed Germination (Corn; 1.0 pounds per surface acre): 30%
- Percent Pre-Emergent Control of Seed Germination (Corn; 2.0 pounds per surface acre): 95%
- Percent Pre-Emergent Control of Seed Germination (Corn; 5.0 pounds per surface acre): 95%
- % Control (Water-Grass; 1/8 Lb/Acre): 95%
- % Control (Water-Grass; 1/16 Lb/Acre): 90%
- Percent Post-Emergent Control of Seed Germination (Barnyard Grass; 250 parts per million): 95%
- Percent Post-Emergent Control of Seed Germination (Barnyard Grass; 500 parts per million): 95%
- Percent Post-Emergent Control of Seed Germination (Barnyard Grass; 1000 parts per million): 95%
- Percent Post-Emergent Control of Seed Germination (Barnyard Grass; 2000 parts per million): 95%
- Percent Post-Emergent Control of Seed Germination (Barnyard Grass; 4000 parts per million): 95%
- Percent Post-Emergent Control of Seed Germination (Cotton; 250 parts per million): 0%
- Percent Post-Emergent Control of Seed Germination (Cotton; 500 parts per million): 0%
- Percent Post-Emergent Control of Seed Germination (Cotton; 1000 parts per million): 50%
- Percent Post-Emergent Control of Seed Germination (Cotton; 2000 parts per million): 50%
- Percent Post-Emergent Control of Seed Germination (Cotton; 4000 parts per million): 65%
